Test results published in PMC9469500, “Targeting an Initiator Allergen Provides Durable and Expansive Protection against House Dust Mite Allergy” (ACS Pharmacology & Translational Science, 2022).

Key:
[1] = biological target: T1, Der p 1 (Dermatophagoides pteronyssinus, UniProt P08176); type: biochemical; conditions: Figure 5A, in words
T1 construct: from tissue; host or cells: spent culture medium of Dermatophagoides pteronyssinus (native HDM extract); ammonium sulfate precipitation, size exclusion, SBTI column, Resource Q
T1 sequence (P08176 99-320): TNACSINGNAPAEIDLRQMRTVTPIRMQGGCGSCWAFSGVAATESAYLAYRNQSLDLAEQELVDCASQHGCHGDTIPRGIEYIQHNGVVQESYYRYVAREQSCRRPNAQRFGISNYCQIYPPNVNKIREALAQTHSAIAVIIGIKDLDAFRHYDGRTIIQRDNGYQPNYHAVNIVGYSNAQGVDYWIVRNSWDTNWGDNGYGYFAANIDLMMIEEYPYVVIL
Protocol: Assays were assembled in 96-well plate format using a PerkinElmer Multiprobe II Plus HTS EX robot (PerkinElmer, UK). […] Reactions were initiated by the addition of 10 μL Der p 1 dissolved in the reaction buffer at 2.5 μg/mL and followed at 30 °C by measurement of fluorescence (excitation/emission 330/420 nm) using either a Fusion Alpha-FP or Envision plate reader fitted with a temperature-controlled carrier (PerkinElmer, UK).
Inhibitor kinetics were analyzed from progress curves. For reversible inhibitors, IC50 values were calculated conventionally.

[2] = system: unsensitized BN rats; test: HDM extract challenge in unsensitized (naive) BN rats, duration of protection; type: in vivo; conditions: for performance in vivo (maximum inhibition of the eosinophil response, Figure 5A): focused library, durability of inhibition studies
[3] = all time points, naive BN rats, HDM extract 10 µg Der p 1, single i.t. aerosol dose 50:1 molar equivalents
[4] = all time points, naive BN rats, HDM extract 10 µg Der p 1, single i.t. aerosol dose 50:1 molar equivalents to Der p 1
[5] = time points other than the stated exceptions, 50:1 molar equivalents i.t. aerosol
[6] = all other time points than those stated not significant, 50:1 molar equivalents

Compound: CC(C)[C@H](NC(=O)[C@H](C)NC(=O)[C@@H](NC(=O)c1ccnc2ccccc12)C(C)(C)C)C(=O)C(=O)NCc1ccccc1 [Compound 5, quinoline-4-carboxylic acid {(S)-1-[(S)-1-((S)-1-benzylaminooxalyl-2-methyl-propylcarbamoyl)-ethylcarbamoyl]-2,2-dimethyl-propyl}-amide]
- potency against the target molecule in vitro [1]: less potent than others
- BAL neutrophil response: significance of effect (P<0.05) [2, 3]: significant
- Reduction in BAL eosinophil response: significance of inhibition (P<0.05) [2, 4]: significant
- onset: temporal separation between drug dosing and HDM challenge required to achieve 50% inhibition of the eosinophil response ([2]; estimated, Figure 5D–F, in words): slower onset
- performance in vivo (maximum inhibition of the eosinophil response, Figure 5A) [2]: effective

Compound: CC(C)[C@H](NC(=O)[C@H](C)NC(=O)[C@@H](NC(=O)c1ccccc1)C(C)(C)C)C(=O)C(=O)NCC(=O)N1CCc2ccccc2C1 [Compound 3, N-[(S)-1-((S)-1-{(S)-1-[2-(3,4-dihydro-1H-isoquinolin-2-yl)-2-oxo-ethylaminooxalyl]-2-methyl-propylcarbamoyl}-ethylcarbamoyl)-2,2-dimethyl-propyl]-benzamide]
- BAL neutrophil response: significance of effect (P<0.05) [2, 3]: significant
- Reduction in BAL eosinophil response: significance of inhibition (P<0.05) [2, 4]: significant

Compound: CNC(=O)c1ccc(CNC(=O)C(=O)[C@@H](NC(=O)[C@H](C)NC(=O)[C@@H](N2Cc3ccccc3C2=O)C(C)(C)C)C(C)C)cc1 [Compound 9, 4-[((S)-3-{(S)-2-[(S)-3,3-dimethyl-2-(1-oxo-1,3-dihydro-isoindol-2-yl)-butyrylamino]-propionylamino}-4-methyl-2-oxo-pentanoylamino)-methyl]-N-methyl-benzamide]
- BAL neutrophil response: significance of effect (P<0.05) [2, 3]: not significant
- Reduction in BAL eosinophil response: significance of inhibition (P<0.05) [2, 5]: significant

Compound: CC(C)[C@H](NC(=O)[C@H](C)NC(=O)[C@@H](NC(=O)c1ccccc1)C12CC3CC(CC(C3)C1)C2)C(=O)C(=O)NCC(=O)N1CCN(C)CC1 [Compound 15, N-[(S)-adamantan-1-yl-((S)-1-{(S)-2-methyl-1-[2-(4-methyl-piperazin-1-yl)-2-oxo-ethylaminooxalyl]-propylcarbamoyl}-ethylcarbamoyl)-methyl]-benzamide]
- BAL neutrophil response: significance of effect (P<0.05) [2, 3]: significant
- Reduction in BAL eosinophil response: significance of inhibition (P<0.05) [2, 4]: significant
- performance in vivo (maximum inhibition of the eosinophil response, Figure 5A) [2]: useful in vivo activity

Compound: N-((S)-1-(((S)-1-(((S)-1-(cyclohexylamino)-4-methyl-1,2-dioxopentan-3-yl)amino)-1-oxopropan-2-yl)amino)-3,3-dimethyl-1-oxobutan-2-yl)isoquinoline-4-carboxamide [Compound 6]
- BAL neutrophil response: significance of effect (P<0.05) [2, 6]: significant
- BAL neutrophil response: significance of effect (P<0.05) ([2]; pre-treatment at 60 min): not significant
- BAL neutrophil response: significance of effect (P<0.05) ([2]; pre-treatment at 120 min): not significant
- Reduction in BAL eosinophil response: significance of inhibition (P<0.05) [2, 5]: significant

Compound: CC(C)[C@H](NC(=O)[C@H](C)NC(=O)[C@H](Cc1ccccc1)NC(=O)c1ccccc1)C(=O)C(=O)NCC(=O)N1CCOCC1 [Compound 13, N-((S)-1-{(S)-1-[(S)-2-methyl-1-(2-morpholin-4-yl-2-oxo-ethylaminooxalyl)-propylcarbamoyl]-ethylcarbamoyl}-2-phenyl-ethyl)-benzamide]
- Reduction in BAL eosinophil response: significance of inhibition (P<0.05) [2, 4]: significant
- BAL neutrophil response: significance of effect (P<0.05) ([2]; pre-treatment at 60 min): not significant
- BAL neutrophil response: significance of effect (P<0.05) ([2]; pre-treatment at 240 min): not significant

Compound: CC(C)[C@H](NC(=O)[C@H](C)NC(=O)[C@H](Cc1ccccc1)NC(=O)c1ccccc1)C(=O)C(=O)NCC(=O)N1CC[N+](C)(C)CC1.O=C[O-] [Compound 4, 4-(2-{(S)-3-[(S)-2-((S)-2-benzoylamino-3-phenyl-propionylamino)-propionylamino]-4-methyl-2-oxo-pentanoylamino}-acetyl)-1,1-dimethyl-piperazin-1-ium formate]
- potency against the target molecule in vitro [1]: less potent than others
- BAL neutrophil response: significance of effect (P<0.05) [2, 3]: significant
- Reduction in BAL eosinophil response: significance of inhibition (P<0.05) [2, 4]: significant
- performance in vivo (maximum inhibition of the eosinophil response, Figure 5A) [2]: effective

Compound: CC(C)[C@H](NC(=O)[C@H](C)NC(=O)[C@H](Cc1ccccc1)NC(=O)c1ccncc1)C(=O)C(=O)NCc1ccccc1 [Compound 11, N-((S)-1-(((S)-1-(((S)-1-(benzylamino)-4-methyl-1,2-dioxopentan-3-yl)amino)-1-oxopropan-2-yl)amino)-1-oxo-3-phenylpropan-2-yl)isonicotinamide]
- potency against the target molecule in vitro [1]: less potent than others
- BAL neutrophil response: significance of effect (P<0.05) [2, 3]: not significant
- Reduction in BAL eosinophil response: significance of inhibition (P<0.05) [2, 4]: significant
- performance in vivo (maximum inhibition of the eosinophil response, Figure 5A) [2]: effective

Compound: CC(C)[C@H](NC(=O)[C@H](C)NC(=O)[C@@H](NC(=O)c1ccnc2ccccc12)C(C)(C)C)C(=O)C(=O)NCC(=O)N1CCN(C(C)C)CC1 [Compound 10, quinoline-4-carboxylic acid [(S)-1-((S)-1-{(S)-1-[2-(4-isopropyl-piperazin-1-yl)-2-oxo-ethylaminooxalyl]-2-methyl-propylcarbamoyl}-ethylcarbamoyl)-2,2-dimethyl-propyl]-amide]
- potency against the target molecule in vitro [1]: potent
- BAL neutrophil response: significance of effect (P<0.05) [2, 3]: not significant
- performance in vivo (maximum inhibition of the eosinophil response, Figure 5A) [2]: performed less satisfactorily
- Reduction in BAL eosinophil response: significance of inhibition (P<0.05) [2, 5]: significant

Compound: CC(C)[C@H](NC(=O)[C@H](C)NC(=O)[C@H](Cc1ccccc1)NC(=O)c1cccc2ccccc12)C(=O)C(=O)NCC(=O)N1CCN(C)CC1 [Compound 8, N-((S)-1-(((S)-1-(((S)-4-methyl-1-((2-(4-methylpiperazin-1-yl)-2-oxoethyl)amino)-1,2-dioxopentan-3-yl)amino)-1-oxopropan-2-yl)amino)-1-oxo-3-phenylpropan-2-yl)-1-naphthamide]
- potency against the target molecule in vitro [1]: less potent than others
- BAL neutrophil response: significance of effect (P<0.05) [2, 6]: significant
- Reduction in BAL eosinophil response: significance of inhibition (P<0.05) [2, 4]: significant
- performance in vivo (maximum inhibition of the eosinophil response, Figure 5A) [2]: effective
- BAL neutrophil response: significance of effect (P<0.05) ([2]; pre-treatment at 60 min): not significant

Compound: CC(C)[C@H](NC(=O)[C@H](C)NC(=O)[C@@H](NC(=O)c1ccccc1C(=O)O)C(C)(C)C)C(=O)C(=O)NCC(=O)N1CCN(C)CC1 [Compound 14, 2-(((S)-3,3-dimethyl-1-(((S)-1-(((S)-4-methyl-1-((2-(4-methylpiperazin-1-yl)-2-oxoethyl)amino)-1,2-dioxopentan-3-yl)amino)-1-oxopropan-2-yl)amino)-1-oxobutan-2-yl)carbamoyl)benzoic acid]
- BAL neutrophil response: significance of effect (P<0.05) [2, 3]: significant
- Reduction in BAL eosinophil response: significance of inhibition (P<0.05) [2, 4]: significant

Compound: CC(C)[C@H](NC(=O)[C@H](C)NC(=O)[C@@H](NC(=O)c1ccncc1)C(C)(C)C)C(=O)C(=O)NC1CCCCC1 [Compound 12, N-{(S)-1-[(S)-1-((S)-1-cyclohexylaminooxalyl-2-methyl-propylcarbamoyl)-ethylcarbamoyl]-2,2-dimethyl-propyl}-isonicotinamide]
- Reduction in BAL eosinophil response: significance of inhibition (P<0.05) [2, 4]: significant
